Results published in patent US10023570B2 (Array BioPharma, Inc., priority 2015, dated 2018).
Where “and” joins values, the source holds several entries; their conditions need not be identical. Equal entries are not always repeated. Structures can show the parent of a compound that is named as a salt.

Target: human KDR protein in HEK-293 cells (Homo sapiens (Human), UniProt P35968)
Assay: KDR Cell Assay (phospho-KDR in HEK-293 cells expressing inducible KDR)
Type: cell-based
Settings: pKDR Cell HEK 10% FBS IC50, HEK-293 cells expressing inducible KDR, VEGF stimulated
Procedure, shortened: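 HEK-293 cells with inducible human KDR were treated with compound for 1 h in DMEM (0.25% DMSO final), then lysed. Phospho-KDR was quantified by Meso Scale immunoassay, expressed as percent of control, and IC50 taken where a 4-parameter logistic fit crossed 50 POC.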

human KDR protein in HEK-293 cells, sequence (P35968 20-1356): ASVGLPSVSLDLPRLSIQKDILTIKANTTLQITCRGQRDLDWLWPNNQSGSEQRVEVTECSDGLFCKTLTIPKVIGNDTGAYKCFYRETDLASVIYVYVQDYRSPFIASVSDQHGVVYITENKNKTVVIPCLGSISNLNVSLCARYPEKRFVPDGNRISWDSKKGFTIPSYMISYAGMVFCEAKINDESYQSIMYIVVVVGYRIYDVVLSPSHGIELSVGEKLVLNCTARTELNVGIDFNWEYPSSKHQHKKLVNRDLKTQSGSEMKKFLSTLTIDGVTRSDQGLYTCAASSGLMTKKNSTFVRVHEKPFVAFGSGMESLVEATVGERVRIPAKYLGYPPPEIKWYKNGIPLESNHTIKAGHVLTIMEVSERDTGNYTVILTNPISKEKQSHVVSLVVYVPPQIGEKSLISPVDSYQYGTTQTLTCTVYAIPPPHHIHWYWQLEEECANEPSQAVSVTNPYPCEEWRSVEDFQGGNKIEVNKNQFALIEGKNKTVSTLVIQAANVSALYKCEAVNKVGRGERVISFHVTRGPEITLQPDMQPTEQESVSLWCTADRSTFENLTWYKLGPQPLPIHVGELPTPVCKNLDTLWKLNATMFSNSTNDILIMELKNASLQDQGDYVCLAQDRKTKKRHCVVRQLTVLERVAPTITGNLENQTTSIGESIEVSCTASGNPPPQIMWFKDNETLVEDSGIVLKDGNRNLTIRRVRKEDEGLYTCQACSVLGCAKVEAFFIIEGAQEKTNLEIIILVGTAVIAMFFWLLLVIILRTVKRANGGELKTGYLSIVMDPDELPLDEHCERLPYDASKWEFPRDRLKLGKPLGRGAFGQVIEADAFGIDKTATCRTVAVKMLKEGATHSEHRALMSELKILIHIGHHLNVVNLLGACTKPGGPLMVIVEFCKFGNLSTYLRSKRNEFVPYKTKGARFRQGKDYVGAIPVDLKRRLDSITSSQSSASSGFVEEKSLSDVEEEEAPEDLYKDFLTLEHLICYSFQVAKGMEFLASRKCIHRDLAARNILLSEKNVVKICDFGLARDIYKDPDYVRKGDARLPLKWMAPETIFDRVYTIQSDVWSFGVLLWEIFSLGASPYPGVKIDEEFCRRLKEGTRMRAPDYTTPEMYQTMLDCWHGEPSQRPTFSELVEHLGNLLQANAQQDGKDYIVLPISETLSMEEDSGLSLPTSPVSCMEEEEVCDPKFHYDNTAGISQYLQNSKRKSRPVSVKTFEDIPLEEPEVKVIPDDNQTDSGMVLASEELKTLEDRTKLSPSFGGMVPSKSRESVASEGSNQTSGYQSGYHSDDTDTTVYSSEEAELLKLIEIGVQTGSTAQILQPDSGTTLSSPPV

Compound | IC50 (10% FBS) [nM] | IC50
Cn1cc(-c2cc(-c3ccc(N4CC5(CCCN5C(=O)OCc5ccccc5)C4)nc3)c3c(C#N)cnn3c2)cn1 [Example 525, benzyl 2-(5-(3-cyano-6-(1-methyl-1H-pyrazol-4-yl)pyrazolo[1,5-a]pyridin-4-yl)pyridin-2-yl)-2,5-diazaspiro[3.4]octane-5-carboxylate 2,2,2-trifluoroacetate] |  | 1580 nM
Cn1cc(-c2cc(-c3ccc(N4CCC(C(=O)NOCC5CC5)CC4)nc3)c3c(C#N)cnn3c2)cn1 [Example 563, 1-(5-(3-cyano-6-(1-methyl-1H-pyrazol-4-yl)pyrazolo[1,5-a]pyridin-4-yl)pyridin-2-yl)-N-(cyclopropylmethoxy)piperidine-4-carboxamide] |  | 195 nM
Cn1cc(-c2cc(-c3ccc(N4CCN(C(=O)N5CC[C@H](c6ccccc6)C5)CC4)nc3)c3c(C#N)cnn3c2)cn1 [Example 378, (R)-6-(1-methyl-1H-pyrazol-4-yl)-4-(6-(4-(3-phenylpyrrolidine-1-carbonyl)piperazin-1-yl)pyridin-3-yl)pyrazolo[1,5-a]pyridine-3-carbonitrile] |  | 467 nM
Cn1cc(-c2cc(-c3ccc(N4CC5CC(C4)N5Cc4ccccc4)nc3)c3c(C#N)cnn3c2)cn1 [Example 489, 4-(6-(6-benzyl-3,6-diazabicyclo[3.1.1]heptan-3-yl)pyridin-3-yl)-6-(1-methyl-1H-pyrazol-4-yl)pyrazolo[1,5-a]pyridine-3-carbonitrile] |  | 19.5 nM
Cn1cc(-c2cc(-c3ccc(N4CCC5(CCCN5)CC4)nc3)c3c(C#N)cnn3c2)cn1 [Example 541, 4-(6-(1,8-diazaspiro[4.5]decan-8-yl)pyridin-3-yl)-6-(1-methyl-1H-pyrazol-4-yl)pyrazolo[1,5-a]pyridine-3-carbonitrile dihydrochloride] |  | 534 nM
Cn1cc(-c2cc(-c3ccc(N4CCN(C(=O)CO)CC4)cc3)c3c(C#N)cnn3c2)cn1 [Example 293, 4-(4-(4-(2-hydroxyacetyl)piperazin-1-yl)phenyl)-6-(1-methyl-1H-pyrazol-4-yl)pyrazolo[1,5-a]pyridine-3-carbonitrile hydrochloride] | 532 | 
CNS(=O)(=O)N1CCN(c2ccc(-c3cc(-c4cnn(C)c4)cn4ncc(C#N)c34)cc2)CC1 [Example 299, 4-(4-(3-cyano-6-(1-methyl-1H-pyrazol-4-yl)pyrazolo[1,5-a]pyridin-4-yl)phenyl)-N-methylpiperazine-1-sulfonamide] | 151 | 
Cn1cc(-c2cc(-c3ccc(N4CC5CC(C4)N5Cc4ccccn4)nc3)c3c(C#N)cnn3c2)cn1 [Example 693, 6-(1-methyl-1H-pyrazol-4-yl)-4-(6-(6-(pyridin-2-ylmethyl)-3,6-diazabicyclo[3.1.1]heptan-3-yl)pyridin-3-yl)pyrazolo[1,5-a]pyridine-3-carbonitrile] |  | 1020 nM
COC1CCN(C(=O)N2CCN(c3ccc(-c4cc(-c5cnn(C)c5)cn5ncc(C#N)c45)cn3)CC2)CC1 [Example 376, 4-(6-(4-(4-methoxypiperidine-1-carbonyl)piperazin-1-yl)pyridin-3-yl)-6-(1-methyl-1H-pyrazol-4-yl)pyrazolo[1,5-a]pyridine-3-carbonitrile] |  | 1830 nM
Cc1cnn2cc(-c3cnn(C)c3)cc(-c3ccc(N4CCN(C(=O)[C@H](O)c5ccccc5)CC4)nc3)c12 [Example 652, (R)-2-hydroxy-1-(4-(5-(3-methyl-6-(1-methyl-1H-pyrazol-4-yl)pyrazolo[1,5-a]pyridin-4-yl)pyridin-2-yl)piperazin-1-yl)-2-phenyl ethan-1-one] |  | 1700 nM
Cn1cc(-c2cc(-c3ccc(N4CC5(CN(C(=O)OC(C)(C)C)C5)C4)nc3)c3c(C#N)cnn3c2)cn1 [Example 526, tert-butyl 6-(5-(3-cyano-6-(1-methyl-1H-pyrazol-4-yl)pyrazolo[1,5-a]pyridin-4-yl)pyridin-2-yl)-2,6-diazaspiro[3.3]heptane-2-carboxylate] |  | ≥ 5000 nM
Cn1cc(-c2cc(-c3ccc(N4CCN(C(=O)C5(c6ccccc6)CCOCC5)CC4)nc3)c3c(C#N)cnn3c2)cn1 [Example 342, 6-(1-methyl-1H-pyrazol-4-yl)-4-(6-(4-(4-phenyltetrahydro-2H-pyran-4-carbonyl)piperazin-1-yl)pyridin-3-yl)pyrazolo[1,5-a]pyridine-3-carbonitrile] | 4750 | 

Results, then the compound that gave them:

IC50 (10% FBS) [nM] | IC50 | Compound
1340 |  | Cn1cc(-c2cc(-c3ccc(N4CCN(C(=O)NC5CCOCC5)CC4)nc3)c3c(C#N)cnn3c2)cn1 [Example 121, 4-(5-(3-cyano-6-(1-methyl-1H-pyrazol-4-yl)pyrazolo[1,5-a]pyridin-4-yl)pyridin-2-yl)-N-(tetrahydro-2H-pyran-4-yl)piperazine-1-carboxamide]
435 |  | Cn1cc(-c2cc(-c3ccc(N4CCN(C(=O)C(CO)c5ccccc5)CC4)nc3)c3c(C#N)cnn3c2)cn1 (stereo not shown) [Example 16, 4-(6-(4-(3-hydroxy-2-phenylpropanoyl)piperazin-1-yl)pyridin-3-yl)-6-(1-methyl-1H-pyrazol-4-yl)pyrazolo[1,5-a]pyridine-3-carbonitrile]
 | 1680 nM | Cn1cc(-c2cc(-c3ccc(N4CCN(Cc5cnccn5)CC4)nc3)c3c(C#N)cnn3c2)cn1 [Example 453]
 | 787 nM and 656 nM | Cn1cc(-c2cc(-c3ccc(N4CCC(Cc5ccc(Cl)cc5)CC4)nc3)c3c(C#N)cnn3c2)cn1 [Example 536, 4-(6-(4-(4-chlorobenzyl)piperidin-1-yl)pyridin-3-yl)-6-(1-methyl-1H-pyrazol-4-yl)pyrazolo[1,5-a]pyridine-3-carbonitrile]
 | ≥ 5000 nM | Cn1cc(-c2cc(-c3ccc(N4CCN(CC5CC(F)(F)C5)CC4)nc3)c3c(C#N)cnn3c2)cn1 [Example 459, 4-(6-(4-((3,3-difluorocyclobutyl)methyl)piperazin-l-yl)pyridin-3-yl)-6-(1-methyl-1H-pyrazol-4-yl)pyrazolo[1,5-a]pyridine-3-carbonitrile]
439 |  | Cn1cc(-c2cc(-c3ccc(N4CCN(C(=O)[C@H]5CCCO5)CC4)nc3)c3c(C#N)cnn3c2)cn1 [Example 58, (R)-6-(1-methyl-1H-pyrazol-4-yl)-4-(6-(4-(tetrahydrofuran-2-carbonyl)piperazin-1-yl)pyridin-3-yl)pyrazolo[1,5-a]pyridine-3-carbonitrile]
 | 1300 nM | CCCN1CCN(c2ccc(-c3cc(-c4cnn(C)c4)cn4ncc(C#N)c34)cn2)CC1 [Example 408, 6-(1-methyl-1H-pyrazol-4-yl)-4-(6-(4-propylpiperazin-1-yl)pyridin-3-yl)pyrazolo[1,5-a]pyridine-3-carbonitrile]
 | 263 nM | Cn1cc(-c2cc(-c3ccc(N4CCN(CCc5ccccc5)CC4)nc3)c3c(C#N)cnn3c2)cn1 [Example 411, 6-(1-methyl-1H-pyrazol-4-yl)-4-(6-(4-phenethylpiperazin-1-yl)pyridin-3-yl)pyrazolo[1,5-a]pyridine-3-carbonitrile]
385 |  | COc1ccc(C2(C(=O)N3CCN(c4ccc(-c5cc(-c6cnn(C)c6)cn6ncc(C#N)c56)cn4)CC3)CC2)cc1 [Example 344, 4-(6-(4-(1-(4-methoxyphenyl)cyclopropanecarbonyl)piperazin-1-yl)pyridin-3-yl)-6-(1-methyl-1H-pyrazol-4-yl)pyrazolo[1,5-a]pyridine-3-carbonitrile]
 | 1510 nM | Cn1cc(-c2cc(-c3ccc(N4CCN(CC(F)F)CC4)nc3)c3c(C#N)cnn3c2)cn1 [Example 418, 4-(6-(4-(2,2-difluoroethyl)piperazin-1-yl)pyridin-3-yl)-6-(1-methyl-1H-pyrazol-4-yl)pyrazolo[1,5-a]pyridine-3-carbonitrile]
